In patent publication US20260055061A1, “HALOPHTHALIMIDE COMPOUNDS AND METHODS OF USE AGAINST TBI, INFLAMMATORY DISORDER, AUTOIMMUNE DISORDER, NEURODEGENERATIVE DISEASE OR VIRAL INFECTION” (The United States of America, as represented by the …, priority 2022, published 2026):
“Also recorded” adds a separate entry of the source.

Experiments:
[1] = test system: TNF-α; assay: LPS-induced TNF-α production in RAW 264.7 cells (ELISA); format: cell-based, mouse; details: for TNF-α level / TNF-α % Δ: 1 μM, LPS-challenged RAW 264.7 cells; for TNF-α % Δ: percentage of vehicle control value (control = 100%), mean ± S.E.M., n = 3; for LPS-induced TNF-α in cell culture media (in words): 100-1000 nM; for concentration from which TNF-α was significantly reduced: 100-1000 nM tested, vs LPS+Vehicle
Method in brief: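 Sandwich ELISA of TNF-α secreted into the media of RAW 264.7 cultures, with a biotinylated detection antibody, avidin-HRP and TMB substrate. Absorbance read at 450 nm with 570 nm background subtraction. Levels interpolated from a TNF-α protein standard curve.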

[2] = test system: TNF-α; assay: LPS model of inflammation in rats: TNF-α in plasma and brain; format: in vivo, rat; details: for TNF-α plasma levels (in words): both doses (TFBP 16.25/32.5, TFNBP 14.33/28.66 mg/kg i.p.), 4 hr post LPS
Protocol: LPS model of inflammation in rats: Male Fischer 344 rats (Charles River Laboratories, Wilmington, MA, USA) (approx. 150 g weight) were randomly assigned across groups, and thereafter administered either vehicle (Veh), or TFBP or TFNBP. Two doses of TFBPs were evaluated: (TFBP: 16.25 mg/kg or 32.5 mg/kg, and for TFNBP: 14.33 mg/kg or 28.66 mg/kg), i.p. These compounds were suspended in 1% carboxymethyl cellulose (CMC) in saline (0.9%), and administered 60 min prior to either administration of LPS (1 mg/kg, Sigma, St Louis, MO, E. coli O55:B5 in saline (0.9%), 0.1 ml/kg i.p.) or of Vehicle (CMC in saline (0.9%) 0.1 ml/kg, i.p.). […] At 4 hr following LPS or Veh, animals were euthanized, and plasma and brain (hippocampus) tissue samples were collected and stored at −80° C. Brain samples were later sonicated in a Tris-based lysis buffer (Mesoscale Discovery, Gaithersburg, MD, USA) with protease/phosphatase inhibitors (Halt™ Protease and Phosphatase Inhibitor Cocktail, ThermoFisher Scientific, Asheville, NC, USA, diluted to 3×). Next, brain samples were centrifuged (10,000 g, 10 min, 4° C.), and protein concentrations were determined by Bicinchoninic acid assay (BCA, ThermoFisher Scientific, Asheville, NC, USA). An ELISA for TNF-α, IL-6, IL-1B, IL-10 and IL-13 was later performed following the manufacturer's protocol (Mesoscale Discovery).
Four hours after LPS injection, animals were euthanized, and blood and brain tissue were collected and placed on wet ice. Plasma was quickly separated from blood by centrifuge at 10,000 g. 5 min, 4° C., and brain regions of cortex, hippocampus and the rest of brain were dissected into separate vials on wet ice, then stored at −80° C. Brain tissues were then sonicated in a TRIS based lysis buffer (Mesoscale Discovery) with 3× protease/phosphatase inhibitors (Halt™ Protease and Phosphatase Inhibitor Cocktail, Thermo Fisher Scientific), were then centrifuged at 10,000 g, 10 min, 4° C., and protein concentrations were measured by Bicinchoninic acid assay (BCA, Thermo Fisher Scientific). Rat plasma, cerebral cortical and hippocampal samples were then analyzed by multi-proinflammatory cytokines ELISA (V-PLEX Proinflammatory Panel 2 Rat Kit, Mesoscale Discovery), following the manufacturer's protocol. The processes and dosages of the experiment of drug treatment effects on LPS rat model was made on the basis of our previous studies.

[3] = test system: LPS-induced nitrite in RAW 264.7 cells; assay: LPS-induced nitrite production in RAW 264.7 cells (Griess reagent / fluorometric kit); format: cell-based, mouse; details: for nitrite levels / nitrite level, % of vehicle control / nitrite inhibitory activity (comparison in words): 1 μM; for nitrite levels / nitrite level, % of vehicle control: LPS-challenged RAW 264.7 cells; for nitrite level, % of vehicle control: percentage of vehicle control value (control = 100%), mean ± S.E.M., n = 3; for nitrite inhibitory activity (comparison in words): tetrafluoro vs corresponding difluoro or stereoisomer; for LPS-induced nitrite in cell culture media (in words): 100-1000 nM; for concentration from which nitrite levels were significantly reduced: 100-1000 nM tested, vs LPS+Vehicle
Method in brief: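 Nitrite in culture media of LPS-challenged RAW 264.7 cells measured as a stable surrogate for NO, using Griess reagent (sulfanilamide, then N-1-naphthylethylenediamine, 10 min each in the dark). Absorbance at 550 nm, with levels read against a nitrite standard curve ([…]) made in matching medium.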

[4] = test system: IFN-γ; assay: LPS model of inflammation in rats: IFN-γ in plasma and cortex; format: in vivo, rat; details: LPS-challenged rats; for IFN-γ in plasma (in words): low and high dose
[5] = high dose (TFBP 32.5, TFNBP 28.66 mg/kg i.p.)
[6] = low dose (TFBP 16.25, TFNBP 14.33 mg/kg i.p.)

Row | SMILES | TNF-α level [1] | TNF-α % Δ [1] | LPS-induced TNF-α in cell culture media (in words) [1] | concentration from which TNF-α was significantly reduced [1] | TNF-α plasma levels (in words) [2] | Cerebral cortex TNF-α, change vs. LPS group [2, 5] | Cerebral cortex TNF-α, change vs. LPS group [2, 6] | nitrite levels [3] | nitrite level, % of vehicle control [3] | nitrite inhibitory activity (comparison in words) [3] | LPS-induced nitrite in cell culture media (in words) [3] | concentration from which nitrite levels were significantly reduced [3] | Brain cortex IFN-γ levels (in words) [4] | IFN-γ in plasma (in words) [4] | other results
1 | CC1(C)[C@@H]2CC[C@@]1(C)[C@@H](N1C(=O)c3c(F)c(F)c(F)c(F)c3C1=O)C2 [Compound 14, 4,5,6,7-Tetrafluoro-2-((1R,2S,4R)-1,7,7-trimethylbicyclo[2.2.1]heptan-2-yl) isoindoline-1,3-dione] | 55-74% | 55 ± 1% | significantly decreased | ≥ 600 nM | reduced this increase | −58.3% | −41.7% | 25-36% | 26 ± 3% | more potent nitrite inhibitory activity | significantly decreased | ≥ 100 nM | not impacted | proved able to reduce this rise | TNF-α plasma levels, decline vs. LPS alone group ([2]; higher dose (TFBP 32.5 mg/kg i.p.), 4 hr post LPS 1 mg/kg): −76%
2 | O=C1c2c(F)c(F)c(F)c(F)c2C(=O)N1C1CC2CCC1C2 (stereo not drawn) [Compound 16, 2-Endo-(bicyclo[2.2.1]heptan-2-yl)-4,5,6,7-tetrafluoroisoindoline-1,3-dione] | 55-74% | 74 ± 3% | significantly decreased; also recorded: effective in decreasing levels of nitrite and TNF-α | ≥ 300 nM | reduced this increase | −41.7% | only effectively did so at the higher tested dose | 25-36% | 36 ± 4% | more potent nitrite inhibitory activity | significantly decreased; also recorded: effective in decreasing levels of nitrite and TNF-α | ≥ 300 nM | not impacted | proved able to reduce this rise | 
3 | Nc1ccc(F)c2c1C(=S)N(C1CCC(=S)NC1=O)C2=O (centres unmarked) [Compound 30, 4-amino-7-fluoro-2-(2-oxo-6-thioxopiperidin-3-yl)-3-thioxoisoindolin-1-one] |  |  |  |  |  |  |  |  |  |  |  |  |  |  | LPS-induced elevation in TNF-α levels (in words) ([1]; 0.6-60 μM, LPS 60 ng/mL, 24 h): significantly lowered; TNF-α in plasma and brain ([2]; 29.57 mg/kg i.p., LPS rat model): significantly reduce; Nitrite, % Change versus Control (± s.e.m.) ([3]; 10 uM, LPS-activated RAW 264.7 cells): 35.3 ± 3.0%; drop in LPS-induced nitrite production ([3]; 10 μM, stimulated RAW cells): 65%; LPS-induced elevation in nitrite levels (in words) ([3]; 0.6-60 μM, LPS 60 ng/mL, 24 h): significantly lowered; nitrite levels (in words) ([3]; six-compound pomalidomide grouping, RAW cell assay, FIGS. 12-13): superior
